Results as given in US8546426B2, “N-aminotetrahydroisoquinolines as anti-cancer agents” (Florida A&M University Board of Trustees, priority 2011, dated 2013).
Values after ≈ are worked out from the molar mass of the structure shown.

Columns and labels:
Format in all cases: cell-based
[1] = tested on: MDA-MB-231 estrogen receptor-negative breast cancer cell line; experiment: […]-GLO luminescent cell viability assay, MDA-MB-231; conditions: Homo sapiens, MDA-MB-231 cells, 5000 cells/well, 72 h at 37° C.
Experimental: (§1) All the compounds are tested in three cell lines. Different concentration of compounds, ranging from about 0.01 nM to about 100,000 nM were delivered to 5×10^3 cells per well, which were then incubated for three days at 37° C., followed by CTG assay.
(§2) In this assay, the number of viable cells in culture is determined based on the quantification of ATP present, which signals the presence of metabolically active cells. Damaged cells are not detected as the ATP leaked from these cells is quickly consumed by ATPases that are also released upon damage). The amount of ATP is determined using a system based on luciferase and D-luciferin resulting in light generation.
(§3) The cell lines were plated in 13, 96 well plates at a density of 5000 cells/well in total volumes of 50 μL in phenol-red free medium and incubated for overnight.
(§4) 25 μL of 40 nM estradiol should be added to all appropriate wells on the plate. […] 25 μL of stocks (containing the compounds to be tested, DMSO and phenol-red free medium) were added to cells and medium already on plate. 50 μL of medium were added to media wells, and 50 μL of mix (contain 32 mL DMSO+768 mL phenol-red free medium) to all vehicle control wells.
(§5) Luminescence results were read on TriLux Luminometer. The luminescent signal is proportional to the number of active cells present in culture. […] As a consequence, the number of metabolically active cells can be directly derived from the luminescent signal using a specific calibration curve. Data were expressed as percentage of untreated control (i.e. treatment value-blank/vehicle value blank), mean±SE for three replications.

Ishikawa cells = experiment: […]-GLO luminescent cell viability assay, Ishikawa; conditions: Homo sapiens, 5000 cells/well, 72 h at 37° C.
Experimental: as §1, §2, §3, §4, §5

[2] = tested on: MCF-7 estrogen receptor-positive breast cancer cells; experiment: […]-GLO luminescent cell viability assay, MCF-7; conditions: Homo sapiens, MCF7, MCF-7 cells, 5000 cells/well, 72 h at 37° C.
Experimental: as §1, §2, §3, §4, §5

SMILES	IC50 [1]	IC50 [2]	IC50 (Ishikawa cells)
COc1ccc(S(=O)(=O)NN2CCc3ccccc3C2)cc1 [Redda-CM-3-13, N-(3,4-dihydroisoquinolin-2(1H)-yl)-4-methoxybenzenesulfonamide]	0.76 µg/mL (≈ 2.39 µM)	1.27 µg/mL (≈ 3.99 µM)	0.45 µg/mL (≈ 1.41 µM)
O=C(NN1CCc2ccccc2C1)c1ccccc1 [Redda-GM-3-15, N-(3,4-dihydroisoquinolin-2-(1H)-yl)benzamide]	0.74 µg/mL (≈ 2.93 µM)	0.63 µg/mL (≈ 2.5 µM)	0.23 µg/mL (≈ 0.912 µM)
COc1ccc(C(=O)NN2CCc3ccccc3C2)cc1 [Redda-GM-3-16, N-(3,4-dihydroisoquinolin-2(1H)-yl)-4-methoxybenzamide]	0.78 µg/mL (≈ 2.76 µM)	0.93 µg/mL (≈ 3.29 µM)	0.21 µg/mL (≈ 0.744 µM)

Second part, led by results:

IC50 [1]	IC50 [2]	SMILES	IC50 (Ishikawa cells)
0.8 µg/mL (≈ 2.79 µM)	0.71 µg/mL (≈ 2.48 µM)	O=C(NN1CCc2ccccc2C1)c1ccc(Cl)cc1 [Redda-GM-3-18, 4-chloro-N-(3,4-dihydroisoquinolin-2(1H)-yl)bemamide]	0.61 µg/mL (≈ 2.13 µM)
1.02 µg/mL (≈ 3.83 µM)	0.7 µg/mL (≈ 2.63 µM)	Cc1ccc(C(=O)NN2CCc3ccccc3C2)cc1 [Redda-GM-3-19]	0.44 µg/mL (≈ 1.65 µM)
